Paper PMC11018007, “Synthesis, carbonic anhydrase inhibition studies and modelling investigations of phthalimide–hydantoin hybrids” (Journal of Enzyme Inhibition and Medicinal Chemistry, 2024)

Legend:
hCA I = target: T1, hCA I (Homo sapiens, UniProt P00915); assay: stopped-flow CO2 hydrase assay; type: biochemical
T1 construct: gene CA1; recombinant from plasmid pACA/hCA I, E. coli BL21 (DE3)
Source text: stopped-flow CO2 hydrase assay on hCA I

hCA II = target: T2, hCA II (Homo sapiens, UniProt P00918); assay: stopped-flow CO2 hydrase assay; type: biochemical
T2 construct: gene CA2; recombinant from plasmid pACA/hCA II, E. coli BL21 (DE3)
Source text: (§1) stopped-flow CO2 hydrase assay on hCA II

hCA VI = target: T3, hCA VI (Homo sapiens, UniProt P23280); assay: stopped-flow CO2 hydrase assay; type: biochemical
T3 construct: gene CA6; secreted isoform; in-house recombinant protein; construct not described here
T3 sequence (P23280 18-308): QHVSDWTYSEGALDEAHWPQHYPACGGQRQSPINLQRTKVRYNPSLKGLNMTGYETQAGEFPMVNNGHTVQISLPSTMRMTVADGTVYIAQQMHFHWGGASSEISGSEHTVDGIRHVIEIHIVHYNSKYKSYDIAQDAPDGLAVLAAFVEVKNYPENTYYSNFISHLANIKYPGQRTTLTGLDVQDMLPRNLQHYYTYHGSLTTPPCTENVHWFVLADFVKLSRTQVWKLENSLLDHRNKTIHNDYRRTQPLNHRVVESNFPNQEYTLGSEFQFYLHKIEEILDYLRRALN
Source text: stopped-flow CO2 hydrase assay on hCA VI

hCA IX = target: T4, hCA IX (Homo sapiens, UniProt Q16790); assay: stopped-flow CO2 hydrase assay; type: biochemical
T4 construct: gene CA9
Source text: stopped-flow CO2 hydrase assay on hCA IX

hCA VII = target: T5, hCA VII (Homo sapiens, UniProt P43166); assay: stopped-flow CO2 hydrase assay; type: biochemical
T5 construct: gene CA7; in-house recombinant protein; construct not described here
T5 sequence (P43166 whole entry): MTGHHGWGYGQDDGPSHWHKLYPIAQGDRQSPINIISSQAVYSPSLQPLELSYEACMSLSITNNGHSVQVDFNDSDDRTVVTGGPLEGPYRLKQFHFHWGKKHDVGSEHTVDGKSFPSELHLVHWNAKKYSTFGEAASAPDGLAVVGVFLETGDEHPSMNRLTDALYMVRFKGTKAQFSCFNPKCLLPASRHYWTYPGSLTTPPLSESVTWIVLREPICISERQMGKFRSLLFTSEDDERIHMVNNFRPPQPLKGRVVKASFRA
Source text: stopped-flow CO2 hydrase assay on hCA VII

[1] = stopped-flow CO2 hydrase assay; type: biochemical, Homo sapiens; details: read-out: KI (μM) ^a / hCA I
Source text: as §1

T1 sequence (P00915 2-261): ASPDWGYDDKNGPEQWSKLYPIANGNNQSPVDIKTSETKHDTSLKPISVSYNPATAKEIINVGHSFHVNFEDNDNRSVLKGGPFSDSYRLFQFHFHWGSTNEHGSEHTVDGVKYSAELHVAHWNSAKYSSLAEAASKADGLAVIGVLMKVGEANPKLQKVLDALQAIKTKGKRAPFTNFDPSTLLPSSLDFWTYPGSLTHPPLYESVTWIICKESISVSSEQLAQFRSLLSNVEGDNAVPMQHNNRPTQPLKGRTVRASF

Structure (SMILES)	Ki (hCA I) [µM]	Ki (hCA II) [µM]	Ki (hCA VI) [µM]	Ki (hCA IX) [µM]	Ki (hCA VII) [µM]	Ki [1] [µM]
O=C1CN(N2C(=O)c3ccc([N+](=O)[O-])cc3C2=O)C(=O)N1 [3b, Potassium 3-(5-nitro-1,3-dioxoisoindolin-2-yl)-2,5-dioxoimidazolidin-1-ide]	> 100	8.99	0.701	0.488	0.163	
O=C1CN(N2C(=O)c3ccccc3C2=O)C(=O)N1 [3a, Potassium 3-(1,3-dioxoisoindolin-2-yl)-2,5-dioxoimidazolidin-1-ide]	> 100	6.94	0.405	0.331	0.075	
O=C1CN(N2C(=O)c3ccc([N+](=O)[O-])cc3C2=O)C(=O)N1Cc1ccccc1 [6b, 2-(3-Benzyl-2,4-dioxoimidazolidin-1-yl)-5-nitroisoindoline-1,3-dione]	> 100		40.2	2.73	45.9	> 100
O=C1CN(N2C(=O)c3ccc([N+](=O)[O-])cc3C2=O)C(=O)N1Cc1ccc([N+](=O)[O-])cc1 [6d, 5-Nitro-2-(3-(4-nitrobenzyl)-2,4-dioxoimidazolidin-1-yl)isoindoline-1,3-dione]	> 100		49.8	4.58	26.3	> 100
O=C1CN(N2C(=O)c3ccccc3C2=O)C(=O)N1Cc1ccc([N+](=O)[O-])cc1 [6c, 2-(3-(4-Nitrobenzyl)-2,4-dioxoimidazolidin-1-yl)isoindoline-1,3-dione]	> 100		50.2	5.68	37.6	> 100
O=C1CN(N2C(=O)c3ccccc3C2=O)C(=O)N1Cc1ccccc1 [6a, 2-(3-Benzyl-2,4-dioxoimidazolidin-1-yl)isoindoline-1,3-dione]	> 100		57.7	3.73	33.7	> 100

Continued, values first:

Ki (hCA I) [µM]	Ki (hCA II) [µM]	Ki (hCA VI) [µM]	Ki (hCA IX) [µM]	Ki (hCA VII) [µM]	Ki [1] [µM]	Structure (SMILES)
> 100	58.6	10.5	4.06	13.9		O=C1CN(NC(=O)c2cc([N+](=O)[O-])ccc2C(=O)O)C(=O)N1 [compound 5, 2-((2,4-Dioxoimidazolidin-1-yl)carbamoyl)-4-nitrobenzoic acid]
> 100		48.5	4.82	59.1	> 100	N#Cc1ccc(CN2C(=O)CN(N3C(=O)c4ccccc4C3=O)C2=O)cc1 [6e, 4-((3-(1,3-Dioxoisoindolin-2-yl)-2,5-dioxoimidazolidin-1-yl)methyl)benzonitrile]
> 100		64.3	6.49	50.5	> 100	N#Cc1ccc(CN2C(=O)CN(N3C(=O)c4ccc([N+](=O)[O-])cc4C3=O)C2=O)cc1 [6f, 4-((3-(5-Nitro-1,3-dioxoisoindolin-2-yl)-2,5-dioxoimidazolidin-1-yl)methyl)benzonitrile]
